These molecules were tested against T1, 3-hydroxy-3-methylglutaryl-coenzyme A reductase (Rattus norvegicus, UniProt P51639) (assay: Inhibition of solubilized, purified rat liver HMG-CoA reductase.).
T1 sequence (P51639 whole entry): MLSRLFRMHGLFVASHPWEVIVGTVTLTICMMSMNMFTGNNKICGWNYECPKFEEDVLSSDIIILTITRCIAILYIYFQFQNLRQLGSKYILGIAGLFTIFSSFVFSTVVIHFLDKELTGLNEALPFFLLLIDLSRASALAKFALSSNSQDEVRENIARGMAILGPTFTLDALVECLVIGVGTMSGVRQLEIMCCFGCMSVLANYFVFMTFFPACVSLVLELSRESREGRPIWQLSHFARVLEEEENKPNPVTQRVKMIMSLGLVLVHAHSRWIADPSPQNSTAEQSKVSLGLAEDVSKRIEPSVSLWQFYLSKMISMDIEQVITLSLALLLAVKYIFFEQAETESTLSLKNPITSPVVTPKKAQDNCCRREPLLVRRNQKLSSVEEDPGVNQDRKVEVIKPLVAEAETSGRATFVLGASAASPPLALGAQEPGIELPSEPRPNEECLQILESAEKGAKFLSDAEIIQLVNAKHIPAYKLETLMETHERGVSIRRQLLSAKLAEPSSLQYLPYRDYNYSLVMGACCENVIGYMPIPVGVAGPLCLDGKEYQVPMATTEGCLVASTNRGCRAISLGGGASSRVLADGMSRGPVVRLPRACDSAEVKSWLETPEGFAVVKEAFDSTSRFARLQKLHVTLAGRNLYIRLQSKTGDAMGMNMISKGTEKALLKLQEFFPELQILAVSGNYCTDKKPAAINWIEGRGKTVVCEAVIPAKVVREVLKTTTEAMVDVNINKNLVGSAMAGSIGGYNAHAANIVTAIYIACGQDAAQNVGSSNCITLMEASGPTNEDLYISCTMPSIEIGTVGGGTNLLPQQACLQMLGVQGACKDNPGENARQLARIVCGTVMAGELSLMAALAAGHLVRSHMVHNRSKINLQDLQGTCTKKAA

In order of falling IC50:
1. CCCCCCCCCC(=O)O[C@H]1C[C@@H](C)C=C2C=C[C@H](C)[C@H](CC[C@@H]3C[C@@H](O)CC(=O)O3)C21 (some centres undefined)  295 nM
2. CC(=O)O[C@H]1C[C@@H](C)C=C2C=C[C@H](C)[C@H](CC[C@@H]3C[C@@H](O)CC(=O)O3)C21 (some centres undefined)  269 nM
3. C[C@H]1C=C2C=C[C@H](C)[C@H](CC[C@@H]3C[C@@H](O)CC(=O)O3)C2[C@@H](OC(=O)Oc2ccccc2)C1 (some centres undefined)  83 nM
4. C[C@H]1C=C2C=C[C@H](C)[C@H](CC[C@@H]3C[C@@H](O)CC(=O)O3)C2[C@@H](OC(=O)C2CC2)C1 (some centres undefined)  38.6 nM
5. C[C@H]1C=C2C=C[C@H](C)[C@H](CC[C@@H]3C[C@@H](O)CC(=O)O3)C2[C@@H](OC(=O)c2ccc(F)cc2)C1 (some centres undefined)  37 nM
6. CC(C)=CC(=O)O[C@H]1C[C@@H](C)C=C2C=C[C@H](C)[C@H](CC[C@@H]3C[C@@H](O)CC(=O)O3)C21 (some centres undefined)  27.3 nM
7. C[C@H]1C=C2C=C[C@H](C)[C@H](CC[C@@H]3C[C@@H](O)CC(=O)O3)[C@H]2[C@@H](OC(=O)Cc2ccccc2)C1  19 nM
8. CCCCC(=O)O[C@H]1C[C@@H](C)C=C2C=C[C@H](C)[C@H](CC[C@@H]3C[C@@H](O)CC(=O)O3)C21 (some centres undefined)  8.7 nM
9. CC(C)C(=O)O[C@H]1C[C@@H](C)C=C2C=C[C@H](C)[C@H](CC[C@@H]3C[C@@H](O)CC(=O)O3)C21 (some centres undefined)  7.7 nM
10. CC(C)CC(=O)O[C@H]1C[C@@H](C)C=C2C=C[C@H](C)[C@H](CC[C@@H]3C[C@@H](O)CC(=O)O3)C21 (some centres undefined)  5.4 nM
11. C[C@H]1C=C2C=C[C@H](C)[C@H](CC[C@@H]3C[C@@H](O)CC(=O)O3)C2[C@@H](OC(=O)C23CC4CC(CC(C4)C2)C3)C1 (some centres undefined)  3.8 nM
12. CC(CC(=O)O[C@H]1C[C@@H](C)C=C2C=C[C@H](C)[C@H](CC[C@@H]3C[C@@H](O)CC(=O)O3)C21)C(F)(F)F (some centres undefined)  3.5 nM
13. C=C(C)CC(=O)O[C@H]1C[C@@H](C)C=C2C=C[C@H](C)[C@H](CC[C@@H]3C[C@@H](O)CC(=O)O3)C21 (some centres undefined)  2.9 nM
14. C[C@H]1C=C2C=C[C@H](C)[C@H](CC[C@@H]3C[C@@H](O)CC(=O)O3)C2[C@@H](OC(=O)C(C)(C)C)C1 (some centres undefined)  2.7 nM
15. CC[C@H](C)C(=O)O[C@H]1C[C@@H](C)C=C2C=C[C@H](C)[C@H](CC[C@@H]3C[C@@H](O)CC(=O)O3)C21 (some centres undefined)  2.2 nM
16. CC[C@@H](C)C(=O)O[C@H]1C[C@@H](C)C=C2C=C[C@H](C)[C@H](CC[C@@H]3C[C@@H](O)CC(=O)O3)C21 (some centres undefined)  2.2 nM
17. CCCC(CC)(CC)C(=O)O[C@H]1C[C@@H](C)C=C2C=C[C@H](C)[C@H](CC[C@@H]3C[C@@H](O)CC(=O)O3)C21 (some centres undefined)  1.9 nM
18. CCC(C)(CC)C(=O)O[C@H]1C[C@@H](C)C=C2C=C[C@H](C)[C@H](CC[C@@H]3C[C@@H](O)CC(=O)O3)C21 (some centres undefined)  1.4 nM
19. CCC(CC)(CC)C(=O)O[C@H]1C[C@@H](C)C=C2C=C[C@H](C)[C@H](CC[C@@H]3C[C@@H](O)CC(=O)O3)C21 (some centres undefined)  1.4 nM
